Values after ≈ are worked out from the molar mass of the structure shown.
Key:
Aspergillus parafelis [1] = assay: checkerboard drug interaction (FICI, MICc);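 note: simplified diagonal checkerboard screen pairing antifungals with FPPS inhibitors, FICI calculated under the Loewe additivity model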
Description: (§2) Drug interactions between antifungals and FPPS inhibitors were investigated using a simplified checkerboard diagonal screening method ([45]). […] FICIs were determined according to the Loewe additivity model ([17]).

[2] = system: Aspergillus flavus biofilms; assay: biofilm XTT reduction assay (SIC80, SFICI); assay type: cell-based
Source text: (§1) […]. […] […].

[3] = system: Candida glabrata biofilms; assay: biofilm XTT reduction assay (SIC80, SFICI); assay type: cell-based
Source text: as §1

[4] = system: Aspergillus fumigatus biofilms; assay: biofilm XTT reduction assay (SIC80, SFICI); assay type: cell-based
Source text: as §1

[5] = system: Candida albicans biofilms; assay: biofilm XTT reduction assay (SIC80, SFICI); conditions: agent alone, Candida albicans SC5314
Description: (§3) Biofilms of Cryptococcus were seeded in DMEM, and all other species were seeded in RPMI-1640.

Aspergillus niger = assay: checkerboard drug interaction (FICI, MICc); assay type: cell-based;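 note: simplified diagonal checkerboard screen pairing antifungals with FPPS inhibitors, FICI calculated under the Loewe additivity model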
Description: as §2

Mucor circinelloides [6] = assay: checkerboard drug interaction (FICI, MICc); assay type: cell-based;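 note: simplified diagonal checkerboard screen pairing antifungals with FPPS inhibitors, FICI calculated under the Loewe additivity model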
Description: as §2

Candida auris = assay: checkerboard drug interaction (FICI, MICc); assay type: cell-based;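 note: simplified diagonal checkerboard screen pairing antifungals with FPPS inhibitors, with FICI computed under the Loewe additivity model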
Description: as §2

Candida parapsilosis [7] = assay: checkerboard drug interaction (FICI, MICc); assay type: cell-based;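 note: simplified diagonal checkerboard screen pairing antifungals with FPPS inhibitors, with FICI computed under the Loewe additivity model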
Description: as §2

Cryptococcus tetragattii = assay: checkerboard drug interaction (FICI, MICc); assay type: cell-based;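 note: simplified diagonal checkerboard screen pairing antifungals with FPPS inhibitors, with FICI calculated under the Loewe additivity model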
Description: as §2

Fusarium solani = assay: checkerboard drug interaction (FICI, MICc); assay type: cell-based;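 note: simplified diagonal checkerboard screen pairing antifungals with FPPS inhibitors, FICI derived under the Loewe additivity model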
Description: as §2

[8] = system: Cryptococcus deneoformans; assay: MIC broth microdilution (CLSI); assay type: cell-based; conditions: Cryptococcus deneoformans JEC21
Description: (§4) Antifungal susceptibility was determined by broth microdilution according to the CLSI guidelines described in M27-Ed4 ([16]).

Aspergillus udagawae [9] = assay: checkerboard drug interaction (FICI, MICc); assay type: cell-based;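 note: simplified diagonal checkerboard screen pairing antifungals with FPPS inhibitors, FICI calculated using the Loewe additivity model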
Description: as §2

[10] = system: Trichophyton rubrum biofilms; assay: biofilm XTT reduction assay (SIC80, SFICI); assay type: cell-based; conditions: biofilm, agent alone; Trichophyton rubrum 213
Description: as §3

[11] = system: Aspergillus frankstonensis; assay: checkerboard drug interaction (FICI, MICc);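 note: simplified diagonal checkerboard screen pairing antifungals with FPPS inhibitors, FICI calculated using the Loewe additivity model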
Description: as §2

Trichophyton soudanense [12] = assay: checkerboard drug interaction (FICI, MICc); assay type: cell-based;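 note: simplified diagonal checkerboard screen pairing antifungals with FPPS inhibitors, FICI computed under the Loewe additivity model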
Description: as §2

[13] = system: Saccharomyces cerevisiae biofilms; assay: biofilm XTT reduction assay (SIC80, SFICI); assay type: cell-based; conditions: FLC:10-ZOL combination, Saccharomyces cerevisiae
Description: as §3

Cryptococcus gattii = assay: checkerboard drug interaction (FICI, MICc); assay type: cell-based;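 note: simplified diagonal checkerboard screen pairing antifungals with FPPS inhibitors, FICI computed under the Loewe additivity model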
Description: as §2

Candida parapsilosis [14] = assay: MIC broth microdilution (CLSI); assay type: cell-based; conditions: Candida parapsilosis ATCC 22018
Description: Antifungal susceptibility was determined by broth microdilution according to the CLSI guidelines described in M27-Ed4 ([16]). […] MFC was determined by back-plating drug-treated cultures from MIC broths onto SDA plates. The MFC was defined as the lowest concentration from which no colonies could be cultured.

Candida tropicalis = assay: checkerboard drug interaction (FICI, MICc); assay type: cell-based;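 note: simplified diagonal checkerboard screen of antifungal plus FPPS inhibitor combinations, with FICI computed by the Loewe additivity model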
Description: as §2

Paraphyton cookei = assay: MIC broth microdilution (CLSI); assay type: cell-based; conditions: Paraphyton cookei R-639
Description: as §4

Scedosporium apiospermum = assay: checkerboard drug interaction (FICI, MICc); assay type: cell-based;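 note: simplified diagonal checkerboard screen of antifungal plus FPPS inhibitor pairs, with FICI computed under the Loewe additivity model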
Description: as §2

Mucor circinelloides [15] = assay: MIC broth microdilution (CLSI); assay type: cell-based; conditions: Mucor circinelloides 80-14-240-5007
Description: as §4

Aspergillus udagawae [16] = assay: MIC broth microdilution (CLSI); assay type: cell-based; conditions: Aspergillus udagawae 8G81
Description: as §4

[17] = system: Trichophyton interdigitale; assay: MIC broth microdilution (CLSI); assay type: cell-based; conditions: Trichophyton interdigitale R-234
Description: as §4

Trichophyton soudanense [18] = assay: MIC broth microdilution (CLSI); conditions: Trichophyton soudanense R-167
Description: as §4

Aspergillus parafelis [19] = assay: MIC broth microdilution (CLSI); assay type: cell-based; conditions: Aspergillus parafelis DTO 341-F2
Description: as §4

| SMILES | antifungal MICc (Aspergillus parafelis [1]; in combination with 10-ZOL) | antifungal MICc (Aspergillus niger; in combination with 10-ZOL) | antifungal MICc (Mucor circinelloides [6]; in combination with 10-ZOL) | antifungal MICc (Mucor circinelloides [6]; in combination with ZOL) | antifungal MICc (Candida auris; in combination with 10-ZOL) | antifungal MICc (Candida auris; in combination with ZOL) | antifungal MICc (Candida parapsilosis [7]; in combination with 10-ZOL) | antifungal MICc (Candida parapsilosis [7]; in combination with ZOL) | antifungal MICc (Cryptococcus tetragattii; in combination with 10-ZOL) | antifungal MICc (Cryptococcus tetragattii; in combination with ZOL) | antifungal MICc (Fusarium solani; in combination with 10-ZOL) | antifungal MICc (Fusarium solani; in combination with ZOL) | MIC / MEC [8] [µg/mL] | antifungal MICc (Aspergillus udagawae [9]; in combination with 10-ZOL) | antifungal MICc ([11]; in combination with 10-ZOL) | antifungal MICc (Trichophyton soudanense [12]; in combination with 10-ZOL) | antifungal MICc (Trichophyton soudanense [12]; in combination with ZOL) | antifungal MICc (Cryptococcus gattii; in combination with 10-ZOL) | antifungal MICc (Cryptococcus gattii; in combination with ZOL) | MIC / MEC (Candida parapsilosis [14]) [µg/mL] | further results |
| --- | --- | --- | --- | --- | --- | --- | --- | --- | --- | --- | --- | --- | --- | --- | --- | --- | --- | --- | --- | --- | --- |
| OC(Cn1cncn1)(Cn1cncn1)c1ccc(F)cc1F [FLC, fluconazole] | 4 | 64 | 32 | 32 | 64 | 32 | 1 | 0.25 | 2 | 1 | 64 | 32 | 0.5 (≈ 1.63 µM) | 4 | 64 | 4 | 64 | 1 | 0.25 | 2 (≈ 6.53 µM) | SICc ([2]; FLC:10-ZOL combination, Aspergillus flavus): 512 µg/mL; SIC80 ([2]; agent alone, Aspergillus flavus ATCC 204304): 1,024 µg/mL; SICc ([3]; FLC:10-ZOL combination, Candida glabrata): 512 µg/mL; SIC80 ([3]; agent alone, Candida glabrata CBS138): >2,048 µg/mL; SICc ([4]; FLC:10-ZOL combination, Aspergillus fumigatus): 512 µg/mL; SIC80 ([4]; agent alone, Aspergillus fumigatus ATCC 204305): >2,048 µg/mL; SIC80 [5]: 512 µg/mL; SIC80 [10]: 2,048 µg/mL; SICc [13]: 64 µg/mL; antifungal MICc (Candida tropicalis; in combination with 10-ZOL): 1; antifungal MICc (Candida tropicalis; in combination with ZOL): 2 |
| CC[C@H](C)C[C@H](C)CCCCCCCCC(=O)N[C@H]1C[C@@H](O)[C@@H](NCCN)NC(=O)[C@@H]2[C@@H](O)CCN2C(=O)[C@H]([C@H](O)CCN)NC(=O)[C@H]([C@H](O)[C@@H](O)c2ccc(O)cc2)NC(=O)[C@@H]2C[C@@H](O)CN2C(=O)[C@H]([C@@H](C)O)NC1=O [CAS, caspofungin] | 0.5 | 2 | 128 | 16 | 0.5 | 4 | 0.25 | 0.5 | 1 | 16 | 16 | 64 | 16 (≈ 14.6 µM) | 1 | 0.125 | 0.5 | 1 | 2 | 16 | 1 (≈ 0.915 µM) | MIC / MEC (Paraphyton cookei): 0.25 µg/mL (≈ 0.229 µM); antifungal MICc (Scedosporium apiospermum; in combination with 10-ZOL): 16; antifungal MICc (Scedosporium apiospermum; in combination with ZOL): 32; antifungal MICc (Aspergillus parafelis [1]; in combination with ZOL): 0.065; antifungal MICc (Aspergillus niger; in combination with ZOL): 4; MIC / MEC (Mucor circinelloides [15]): >16 µg/mL; MIC / MEC (Aspergillus udagawae [16]): 2 µg/mL (≈ 1.83 µM); MIC / MEC [17]: 0.25 µg/mL (≈ 0.229 µM); antifungal MICc (Aspergillus udagawae [9]; in combination with ZOL): 2; antifungal MICc ([11]; in combination with ZOL): 0.5; MIC / MEC (Trichophyton soudanense [18]): 0.5 µg/mL (≈ 0.457 µM); MIC / MEC (Aspergillus parafelis [19]): 0.13 µg/mL (≈ 0.119 µM); antifungal MICc (Candida tropicalis; in combination with 10-ZOL): 0.25; antifungal MICc (Candida tropicalis; in combination with ZOL): 0.02 |
| C[C@@H](c1ncncc1F)[C@](O)(Cn1cncn1)c1ccc(F)cc1F [VOR] | 2 | 0.13 | 4 | 4 | 0.25 | 1 | 0.063 | 0.125 | 0.063 | 0.125 | 0.5 | 1 | 0.06 (≈ 0.172 µM) | 0.03 | 4 | 0.063 | 0.03125 | 0.033 | 0.06 | 0.13 (≈ 0.372 µM) | MIC / MEC (Paraphyton cookei): 0.5 µg/mL (≈ 1.43 µM); antifungal MICc (Scedosporium apiospermum; in combination with 10-ZOL): 0.5; antifungal MICc (Scedosporium apiospermum; in combination with ZOL): 1; antifungal MICc (Aspergillus parafelis [1]; in combination with ZOL): 2; antifungal MICc (Aspergillus niger; in combination with ZOL): 1; MIC / MEC (Mucor circinelloides [15]): 8 µg/mL (≈ 22.9 µM); MIC / MEC (Aspergillus udagawae [16]): 1 µg/mL (≈ 2.86 µM); MIC / MEC [17]: 0.25 µg/mL (≈ 0.716 µM); antifungal MICc (Aspergillus udagawae [9]; in combination with ZOL): 0.5; antifungal MICc ([11]; in combination with ZOL): 2; MIC / MEC (Trichophyton soudanense [18]): 0.13 µg/mL (≈ 0.372 µM); MIC / MEC (Aspergillus parafelis [19]): 8 µg/mL (≈ 22.9 µM); antifungal MICc (Candida tropicalis; in combination with 10-ZOL): 0.032; antifungal MICc (Candida tropicalis; in combination with ZOL): 0.0625 |
| C[C@@H]1[C@H](O)[C@@H](C)/C=C/C=C/C=C/C=C/C=C/C=C/C=C/[C@H](O[C@@H]2O[C@H](C)[C@@H](O)[C@H](N)[C@@H]2O)C[C@@H]2O[C@](O)(C[C@@H](O)C[C@@H](O)[C@H](O)CC[C@@H](O)C[C@@H](O)CC(=O)O[C@H]1C)C[C@H](O)[C@H]2C(=O)O [AMB, amphotericin B] | 1 | 0.25 | 0.25 | 0.25 | 1 | 2 | 0.5 | 0.5 | 0.25 | 0.125 | 0.25 | 0.25 | 0.25 (≈ 0.271 µM) | 0.25 | 1 | 0.25 | 0.5 | 0.125 | 0.25 | 0.5 (≈ 0.541 µM) | MIC / MEC (Paraphyton cookei): 1 µg/mL (≈ 1.08 µM); antifungal MICc (Scedosporium apiospermum; in combination with 10-ZOL): 2; antifungal MICc (Scedosporium apiospermum; in combination with ZOL): 8; antifungal MICc (Aspergillus parafelis [1]; in combination with ZOL): 4; antifungal MICc (Aspergillus niger; in combination with ZOL): 0.125; MIC / MEC (Mucor circinelloides [15]): 0.25 µg/mL (≈ 0.271 µM); MIC / MEC (Aspergillus udagawae [16]): 2 µg/mL (≈ 2.16 µM); MIC / MEC [17]: 0.5 µg/mL (≈ 0.541 µM); antifungal MICc (Aspergillus udagawae [9]; in combination with ZOL): 0.25; antifungal MICc ([11]; in combination with ZOL): 2; MIC / MEC (Trichophyton soudanense [18]): 0.5 µg/mL (≈ 0.541 µM); MIC / MEC (Aspergillus parafelis [19]): 4 µg/mL (≈ 4.33 µM); antifungal MICc (Candida tropicalis; in combination with 10-ZOL): 0.5; antifungal MICc (Candida tropicalis; in combination with ZOL): 1 |
